Experimental data: ChEMBL document CHEMBL1134429, “The development of a potential single photon emission computed tomography (SPECT) imaging agent for the corticotropin-releasing hormone receptor type” (Bioorg Med Chem Lett, 2001)

Target: T1, Corticotropin-releasing factor receptor 1 (Rattus norvegicus, UniProt P35353)
T1 sequence (P35353 whole entry): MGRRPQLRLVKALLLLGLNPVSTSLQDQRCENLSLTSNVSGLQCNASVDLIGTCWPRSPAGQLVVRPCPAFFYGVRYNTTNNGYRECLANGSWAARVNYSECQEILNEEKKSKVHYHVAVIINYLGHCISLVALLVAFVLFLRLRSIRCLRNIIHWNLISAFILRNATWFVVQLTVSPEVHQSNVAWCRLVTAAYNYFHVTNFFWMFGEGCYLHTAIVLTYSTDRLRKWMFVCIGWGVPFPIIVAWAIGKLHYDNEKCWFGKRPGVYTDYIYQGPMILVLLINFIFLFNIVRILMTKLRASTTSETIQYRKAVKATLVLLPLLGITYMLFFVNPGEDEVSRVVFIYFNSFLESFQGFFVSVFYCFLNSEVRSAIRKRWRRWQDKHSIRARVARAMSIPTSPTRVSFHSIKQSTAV
Test: Binding affinity towards Corticotropin releasing hormone receptor type 1 of rat cerebellum using [125I]Tyr-sauvagine as radioligand.
Format: tissue-based

Ki	Structure (SMILES)
14 nM	CCCN(CC1CC1)c1nc(C)nc(Nc2c(Cl)cc(I)cc2Cl)c1Cl
31 nM	CCCN(CC1CC1)c1nc(C)nc(Nc2c(Cl)cc(Cl)cc2Cl)c1Cl
